Laboratory results as given in US9296704B2, “Substituted pyrimidines as protein kinase inhibitors” (CELGENE AVILOMICS RESEARCH, INC., priority 2007, dated 2016).

Tests used:
EGFR (WT) = biological target: T1, EGFR (WT) (Homo sapiens, UniProt P00533); assay: Omnia continuous-read kinase assay, EGFR (WT); type: biochemical; conditions: read-out: EGFR inhibtion
T1 construct: purchased Invitrogen PV3872
Summary of the method: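 Enzyme pre-incubated 30 min at 27 °C with compound, then ATP/Y12-Sox peptide added; fluorescence (ex360/em485) read continuously 60 min in 20 mM Tris pH 7.5, 5 mM MgCl2, 0.2 mM DTT. WT: 5 nM enzyme, […]; T790M/L858R: 3 nM enzyme, […]. IC50 from initial velocities, variable-slope fit.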

ErbB1 = ErbB1 (Homo sapiens, UniProt P00533); assay: Z'-LYTE biochemical assay, ErbB1 kinase inhibition
Sequence of ErbB1 (P00533 25-1210): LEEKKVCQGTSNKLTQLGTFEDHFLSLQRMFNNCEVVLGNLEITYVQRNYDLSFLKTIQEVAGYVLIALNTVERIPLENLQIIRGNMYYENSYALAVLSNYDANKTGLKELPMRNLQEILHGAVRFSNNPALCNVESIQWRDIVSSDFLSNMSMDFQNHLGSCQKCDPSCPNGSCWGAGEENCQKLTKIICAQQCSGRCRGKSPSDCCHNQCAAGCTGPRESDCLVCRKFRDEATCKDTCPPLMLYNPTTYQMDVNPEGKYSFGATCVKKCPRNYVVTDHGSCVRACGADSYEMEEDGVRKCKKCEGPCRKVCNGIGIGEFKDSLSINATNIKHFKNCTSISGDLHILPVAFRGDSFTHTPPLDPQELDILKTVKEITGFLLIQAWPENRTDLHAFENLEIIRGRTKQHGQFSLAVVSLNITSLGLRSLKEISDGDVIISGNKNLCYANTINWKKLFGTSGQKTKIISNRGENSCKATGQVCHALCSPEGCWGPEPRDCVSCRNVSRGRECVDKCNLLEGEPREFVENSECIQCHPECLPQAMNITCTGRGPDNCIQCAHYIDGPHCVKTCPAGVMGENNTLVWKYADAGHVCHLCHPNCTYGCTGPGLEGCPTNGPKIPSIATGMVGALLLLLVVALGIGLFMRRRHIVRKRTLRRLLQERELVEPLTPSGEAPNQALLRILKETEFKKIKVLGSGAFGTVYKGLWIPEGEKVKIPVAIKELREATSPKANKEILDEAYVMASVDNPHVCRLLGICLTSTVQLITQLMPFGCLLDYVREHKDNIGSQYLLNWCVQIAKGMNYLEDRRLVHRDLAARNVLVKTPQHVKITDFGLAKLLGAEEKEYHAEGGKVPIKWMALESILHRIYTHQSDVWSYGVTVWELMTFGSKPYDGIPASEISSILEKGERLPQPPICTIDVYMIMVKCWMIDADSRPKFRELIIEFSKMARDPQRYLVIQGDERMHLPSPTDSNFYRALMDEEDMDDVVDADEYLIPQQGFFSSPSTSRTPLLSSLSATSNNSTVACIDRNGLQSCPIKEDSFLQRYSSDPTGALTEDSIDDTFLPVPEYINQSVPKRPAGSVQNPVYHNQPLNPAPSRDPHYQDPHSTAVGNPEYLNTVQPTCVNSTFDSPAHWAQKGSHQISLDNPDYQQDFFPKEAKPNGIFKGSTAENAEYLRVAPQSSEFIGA
Summary of the method: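 Fluorescence-based coupled-enzyme Z′-LYTE format: kinase phosphorylation of a peptide substrate is read by differential protease cleavage of phosphorylated versus non-phosphorylated peptide.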

ErbB2 = ErbB2 (Homo sapiens, UniProt P04626); assay: Z'-LYTE biochemical assay, ErbB2 kinase inhibition
Sequence of ErbB2 (P04626 23-1255): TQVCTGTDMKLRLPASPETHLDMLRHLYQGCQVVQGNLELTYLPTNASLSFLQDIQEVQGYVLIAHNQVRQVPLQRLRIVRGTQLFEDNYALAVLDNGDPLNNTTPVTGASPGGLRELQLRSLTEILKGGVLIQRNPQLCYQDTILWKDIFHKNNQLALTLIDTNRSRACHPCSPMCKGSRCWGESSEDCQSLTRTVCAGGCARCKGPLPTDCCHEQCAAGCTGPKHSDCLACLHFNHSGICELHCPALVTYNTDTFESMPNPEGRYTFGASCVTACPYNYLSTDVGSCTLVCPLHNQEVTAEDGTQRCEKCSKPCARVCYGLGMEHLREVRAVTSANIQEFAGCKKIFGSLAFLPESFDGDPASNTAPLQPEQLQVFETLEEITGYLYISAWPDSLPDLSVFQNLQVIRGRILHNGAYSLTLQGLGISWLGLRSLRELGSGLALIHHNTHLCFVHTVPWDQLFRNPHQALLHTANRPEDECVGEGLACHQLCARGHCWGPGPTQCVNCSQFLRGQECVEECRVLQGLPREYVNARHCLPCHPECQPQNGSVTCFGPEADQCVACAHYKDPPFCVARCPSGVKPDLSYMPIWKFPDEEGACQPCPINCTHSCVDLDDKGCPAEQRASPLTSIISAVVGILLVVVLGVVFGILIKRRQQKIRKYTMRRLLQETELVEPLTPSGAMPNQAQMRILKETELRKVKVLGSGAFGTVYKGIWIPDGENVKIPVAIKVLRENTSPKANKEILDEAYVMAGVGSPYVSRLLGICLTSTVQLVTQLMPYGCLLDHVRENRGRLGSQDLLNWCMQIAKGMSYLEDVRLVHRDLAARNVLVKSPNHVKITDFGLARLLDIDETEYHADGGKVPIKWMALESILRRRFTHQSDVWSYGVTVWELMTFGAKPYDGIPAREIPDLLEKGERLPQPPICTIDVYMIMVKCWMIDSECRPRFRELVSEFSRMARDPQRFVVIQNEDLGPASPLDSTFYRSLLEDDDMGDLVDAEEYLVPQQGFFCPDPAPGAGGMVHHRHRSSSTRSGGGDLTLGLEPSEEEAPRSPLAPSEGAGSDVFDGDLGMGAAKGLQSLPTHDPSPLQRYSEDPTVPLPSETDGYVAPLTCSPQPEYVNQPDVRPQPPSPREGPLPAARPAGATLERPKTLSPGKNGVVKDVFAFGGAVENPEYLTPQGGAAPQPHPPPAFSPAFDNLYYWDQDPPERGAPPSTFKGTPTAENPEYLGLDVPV
Procedure: Compounds of the present invention were assayed as inhibitors of one or more of ErbB1, ErbB2, and/or ErbB4 in a manner substantially similar to the method described by Invitrogen Corp (Invitrogen Corporation, 1600 Faraday Avenue, Carlsbad, Calif., CA; http://www.invitrogen.com/downloads/Z-LYTE_Brochure—1205.pdf) using the Z′-LYTE™ biochemical assay procedure or similar biochemical assay. The Z′-LYTE™ biochemical assay employs a fluorescence-based, coupled-enzyme format and is based on the differential sensitivity of phosphorylated and non-phosphorylated peptides to proteolytic cleavage.

BTK in Ramos cells = assay: Washout experiment with Ramos cells for BTK activity; type: cell-based, human; conditions: for BTK Inhibition Type: Ramos washout assay, 100 nM compound for 1 hour
Procedure: Ramos cells were serum starved for one hour in RPMI media+1% glutamine at 37° C. After starvation, Ramos cells were treated with 100 nM compound diluted in serum free RPMI media for 1 hour. After compound treatment, the media was removed and cells were washed with compound-free media. Subsequently, Ramos cells were washed every 2 hours and resuspended in fresh compound-free media. Cells were collected at specified timepoints, treated with 1 ug anti-human IgM (Southern Biotech cat #2022-01) for 10 minutes on ice to induce BCR signaling and then washed in PBS. Ramos cells were then lysed in Cell Extraction Buffer (Invitrogen FNN0011) supplemented with Roche complete protease inhibitor tablets (Roche 11697498001) and phosphatase inhibitors (Roche 04 906 837 001) and 18 ug total protein lysate was loaded in each lane. Inhibition of BTK kinase activity was assayed by measuring its substrate (PLCγ2) phosphorylation by western blot with phospho-specific antibodies from Cell Signaling Technologies cat#3871. FIG. 10 depicts the results of compound I-13 in the washout experiment at 0 hour, 4 hour, 6 hour, and 8 hour time points.

BTK = BTK (Homo sapiens, UniProt Q06187); assay: Mass spectrometry for BTK (intact protein); type: binding; conditions: 10× excess, 1 hr, MALDI
Sequence of BTK (Q06187 whole entry): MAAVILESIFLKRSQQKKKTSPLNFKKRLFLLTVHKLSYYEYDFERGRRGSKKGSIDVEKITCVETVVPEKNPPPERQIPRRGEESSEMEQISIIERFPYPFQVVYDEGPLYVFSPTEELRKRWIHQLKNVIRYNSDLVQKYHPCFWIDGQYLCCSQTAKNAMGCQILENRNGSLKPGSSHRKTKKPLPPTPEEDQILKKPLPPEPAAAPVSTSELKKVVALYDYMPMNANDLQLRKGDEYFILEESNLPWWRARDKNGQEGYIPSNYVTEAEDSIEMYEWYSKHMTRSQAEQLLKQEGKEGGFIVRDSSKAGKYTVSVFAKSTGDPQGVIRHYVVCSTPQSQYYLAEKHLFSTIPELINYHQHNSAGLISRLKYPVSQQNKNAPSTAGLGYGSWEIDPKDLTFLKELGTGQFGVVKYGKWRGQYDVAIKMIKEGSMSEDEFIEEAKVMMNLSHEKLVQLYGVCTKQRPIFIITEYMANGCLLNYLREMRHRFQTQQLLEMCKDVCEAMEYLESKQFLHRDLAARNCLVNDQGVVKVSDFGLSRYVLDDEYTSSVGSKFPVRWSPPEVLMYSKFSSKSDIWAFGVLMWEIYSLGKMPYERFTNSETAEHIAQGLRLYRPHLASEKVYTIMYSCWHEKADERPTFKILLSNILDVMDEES
Procedure: Intact BTK was incubated for 1 hr at a 10× fold excess of compound I-63 or I-66 to protein. Aliquots (2 ul) of the samples were diluted with 10 ul of 0.1% TFA prior to micro C4 ZipTipping directly onto the MALDI target using Sinapinic acid as the desorption matrix (10 mg/ml in 0.1% TFA:Acetonitrile 20:80). The top panels of FIGS. 12 and 13 show the mass spec trace of the intact BTK protein (m/z 81,169 Da). The bottom panels show the mass spec trace when BTK was incubated with compound I-63 (mw 424.5) or compound I-66 (mw 425.5) in FIGS. 12 and 13, respectively.

T1 sequence (P00533 25-1210): as the sequence (P00533 25-1210) above

In the case of `C=CC(=O)Nc1cccc(Nc2cc(Nc3cccc(Br)c3)ncn2)c1` [I-1, N-{3-[6-(3-bromophenylamino)-pyrimidin-4-ylamino]-phenyl}-2-propenamide], the IC50 (EGFR (WT)) is reported as no more than 10 nM, the inhibition at 0.01 µM (ErbB1; @ 10 nM) is reported as 99% and the inhibition at 0.1 µM (ErbB2; @ 100 nM) is reported as 61%. For the same compound, the inhibition at 1 µM (ErbB2) was 76%.
Work on `C=CC(=O)Nc1cccc(Nc2cc(Nc3ccc(Oc4ccccc4)cc3)ncn2)c1` [I-13, N-{3-[6-(4-phenoxyphenylamino)-pyrimidin-4-ylamino]phenyl}-2 propenamide] yielded an IC50 (EGFR (WT)) of no more than 10 nM, an inhibition at 1 µM (ErbB1; @ 1 μM) of 92% and an inhibition at 1 µM (ErbB2) of 98%. For the same compound, the “inhibition of BTK after washout over time” value (BTK in Ramos cells; Ramos cells, 100 nM, 0, 4, 6 and 8 hour time points) was “maintains inhibition of BTK for 8 hours” and the “BTK Inhibition Type” value (BTK in Ramos cells) was “irreversible”.
With `C=CC(=O)Nc1cccc(Nc2cc(Nc3ccc(Oc4ccccc4)cc3)ncn2)n1` [I-63] the IC50 (EGFR (WT)) was no more than 10 nM, the “BTK Inhibition Type” value (BTK in Ramos cells) was “irreversible” and the “modification of intact BTK by mass shift” value (BTK) was “complete modification of BTK”.
In the case of `CN(C)C/C=C/C(=O)Nc1cccc(Nc2cc(Nc3ccc(Oc4ccccc4)cc3)ncn2)n1` [I-64, (E)-4-(dimethylamino)-N-(6-(6-(4-phenoxyphenylamino)pyrimidin-4-ylamino)pyridine-2-yl)but-2-enamide], the “BTK Inhibition Type” value (BTK in Ramos cells) is reported as “irreversible”.
For `C=CC(=O)Nc1cccc(Nc2cc(Oc3cccc(C)c3)ncn2)n1` [I-65], the IC50 (EGFR (WT)) was no more than 10 nM and the “BTK Inhibition Type” value (BTK in Ramos cells) was “reversible”.
For `C=CC(=O)Nc1cccc(Nc2cc(Oc3ccc(Oc4ccccc4)cc3)ncn2)n1` [I-66], the IC50 (EGFR (WT)) was no more than 10 nM, the “BTK Inhibition Type” value (BTK in Ramos cells) was “irreversible” and the “modification of intact BTK by mass shift” value (BTK) was “complete modification of BTK”.
In the case of `C=CC(=O)N(C)c1cccc(Nc2cc(Nc3ccc(Oc4ccccc4)cc3)ncn2)n1` [I-78, N-methyl-N-(6-(6-(4-phenoxyphenylamino)pyrimidin-4-ylamino)pyridin-2-yl)acrylamide], the IC50 (EGFR (WT)) is reported as no more than 10 nM.
`CN(C)C/C=C/C(=O)N(C)c1cccc(Nc2cc(Nc3ccc(Oc4ccccc4)cc3)ncn2)n1` [I-79, (E)-4-(dimethylamino)-N-methyl-N-(6-(6-(4-phenoxyphenylamino)pyrimidin-4-ylamino)pyridine-2-yl)but-2-enamide] showed an IC50 (EGFR (WT)) of no more than 10 nM.
With `Cc1cccc(Oc2cc(Nc3cccc(NC(=O)/C=C/CN(C)C)n3)ncn2)c1` [I-81] the IC50 (EGFR (WT)) was no more than 10 nM.
In the case of `C=CC(=O)Nc1cccc(Nc2cc(Nc3ccccc3)ncn2)n1` [I-94], the IC50 (EGFR (WT)) is reported as no more than 10 nM.
